The source of these data is paper PMC8667945, “Structure-based virtual screening and biological evaluation of novel small-molecule BTK inhibitors” (Journal of Enzyme Inhibition and Medicinal Chemistry, 2021).

The structures appear in SMILES notation.

In experiment [1] the target is T1, Bruton tyrosine kinase (BTK) (Homo sapiens, UniProt Q06187). The experiment can be described thus: Z'LYTE biochemical kinase inhibition assay, dose response.
Experiment [2] deals with T1, Bruton tyrosine kinase (BTK). The experiment in a line: Z'LYTE biochemical kinase inhibition assay, single dose (% inhibition at […]).

T1 sequence (Q06187 2-659): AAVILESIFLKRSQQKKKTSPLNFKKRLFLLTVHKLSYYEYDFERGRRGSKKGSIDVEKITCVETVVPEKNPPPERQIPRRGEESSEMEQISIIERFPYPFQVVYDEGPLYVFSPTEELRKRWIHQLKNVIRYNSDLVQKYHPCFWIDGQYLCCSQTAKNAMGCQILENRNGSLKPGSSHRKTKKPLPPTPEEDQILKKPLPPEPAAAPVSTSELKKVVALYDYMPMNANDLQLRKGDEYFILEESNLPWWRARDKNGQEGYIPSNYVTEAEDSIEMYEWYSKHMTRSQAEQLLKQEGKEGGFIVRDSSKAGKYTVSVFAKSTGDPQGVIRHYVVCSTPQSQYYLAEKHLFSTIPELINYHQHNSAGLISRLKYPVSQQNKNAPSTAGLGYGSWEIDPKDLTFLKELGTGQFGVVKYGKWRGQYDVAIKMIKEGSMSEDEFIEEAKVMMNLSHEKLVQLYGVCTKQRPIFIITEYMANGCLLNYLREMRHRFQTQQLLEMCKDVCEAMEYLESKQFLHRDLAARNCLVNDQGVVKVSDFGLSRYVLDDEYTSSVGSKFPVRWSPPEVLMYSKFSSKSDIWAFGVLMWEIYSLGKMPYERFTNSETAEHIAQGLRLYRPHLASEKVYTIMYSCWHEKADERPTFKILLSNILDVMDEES

The molecule `O=C(Sc1nc(SC(=O)c2ccccc2)c2cn[nH]c2n1)c1ccccc1` [NSC722944] yielded an IC50 in experiment [1] of 1600 nM.

`N#CCc1n[nH]c2nc(SCc3ccccc3)nc(Nc3nnc(S)s3)c12` [NSC724520]: in experiment [1], the concentration for half-maximal inhibition (IC50) amounted to 2100 nM.

For `C(=Nc1nc(N2CCOCC2)nc2[nH]ncc12)c1ccco1` [NSC725686], half-maximal inhibition in experiment [1] (IC50) required 840 nM.

In the case of `COc1ccc(/C=N/Nc2nc(SCc3ccccc3)nc3[nH]ncc23)cc1OC` [NSC726558], in experiment [2], 10 µM produced 59% inhibition.

Regarding `C(=Nc1nc(NCc2ccccc2)nc2[nH]ncc12)c1cccs1` [NSC726593], it took 5000 nM to reach half-maximal inhibition in experiment [1] (IC50).
